Experimental data: patent US11041212B2, “ABCA1 downregulation in prostate cancer” (THE CLEVELAND CLINIC FOUNDATION, priority 2013, dated 2021)

Experiments:
Assay type in all cases: cell-based, human
[1] = test system: LNCaP cells; assay: Total cellular cholesterol content in LNCaP cells; conditions: single agent
Protocol: (§1) PrEC (Lonza, Walkersville, Md.) was cultured in PrEGM according to the manufacturer's instructions. LNCaP and DU 145 (ATCC, Manassas, Va.) were cultured in RPMI 1640 supplemented with 10% FBS. All three cell lines were obtained directly from the cell banks, and the identities of the cell lines were verified per the cell banks' protocols. Cells were treated with 10 μM T0901317 (Sigma, St. Louis, Mo.) for 24 hours or 5 μM 5-aza-2′-deoxycytidine (Sigma, St. Louis, Mo.) for 7 days, or a combination of the two compounds. ABCA1 promoter (−1132 to +112 relative to the transcription start site) was amplified by PCR and subcloned into the pGL4.20 (Promega, Madison, Wis.). Methylated ABCA1 promoter was in vitro DNA methylated using SssI (NEB, Ipswich, Mass.) and ligated into pGL4.20 prior to transfection. […] Reporter luciferase activity was measured and normalized to control Renilla luciferase activity for each sample. […] Biochemical quantification of intracellular cholesterol was performed as previously described. […] At the end of this chase period, the radioactivity in the medium and cells was determined by liquid scintillation counting, and the percent efflux was calculated as 100×(medium dpm)/(medium dpm+cell dpm). Percent efflux to acceptors was calculated as (percent efflux to acceptor)-(percent efflux to no acceptor). […]

[2] = test system: ABCA1 promoter; assay: ABCA1 promoter/luciferase reporter assay in DU 145 cells; conditions: 10 μM, 24 hours
Protocol: (§2) PrEC (Lonza, Walkersville, Md.) was cultured in PrEGM according to the manufacturer's instructions. LNCaP and DU 145 (ATCC, Manassas, Va.) were cultured in RPMI 1640 supplemented with 10% FBS. All three cell lines were obtained directly from the cell banks, and the identities of the cell lines were verified per the cell banks' protocols. Cells were treated with 10 μM T0901317 (Sigma, St. Louis, Mo.) for 24 hours or 5 μM 5-aza-2′-deoxycytidine (Sigma, St. Louis, Mo.) for 7 days, or a combination of the two compounds. ABCA1 promoter (−1132 to +112 relative to the transcription start site) was amplified by PCR and subcloned into the pGL4.20 (Promega, Madison, Wis.). Methylated ABCA1 promoter was in vitro DNA methylated using SssI (NEB, Ipswich, Mass.) and ligated into pGL4.20 prior to transfection. The reporter construct was co-transfected with pGL 4.74 vector into DU 145 cells using Nucleofection (Lonza, Walkersville, Md.). Reporter luciferase activity was measured and normalized to control Renilla luciferase activity for each sample. The mean±SEM from triplicate experiments for each experimental group was plotted for comparisons. The different groups were compared using one way ANOVA with Bonferroni's multiple comparison test.

[3] = test system: LNCaP cells; assay: Cellular [3H]-cholesterol efflux to acceptors in LNCaP cells; conditions: for cholesterol efflux to APOA1: acceptor 10 μg/mL APOA1, 4 hours chase; for cholesterol efflux to HDL: acceptor 100 μg/mL HDL, 4 hours chase
Protocol: PrEC (Lonza, Walkersville, Md.) was cultured in PrEGM according to the manufacturer's instructions. LNCaP and DU 145 (ATCC, Manassas, Va.) were cultured in RPMI 1640 supplemented with 10% FBS. All three cell lines were obtained directly from the cell banks, and the identities of the cell lines were verified per the cell banks' protocols. Cells were treated with 10 μM T0901317 (Sigma, St. Louis, Mo.) for 24 hours or 5 μM 5-aza-2′-deoxycytidine (Sigma, St. Louis, Mo.) for 7 days, or a combination of the two compounds. ABCA1 promoter (−1132 to +112 relative to the transcription start site) was amplified by PCR and subcloned into the pGL4.20 (Promega, Madison, Wis.). Methylated ABCA1 promoter was in vitro DNA methylated using SssI (NEB, Ipswich, Mass.) and ligated into pGL4.20 prior to transfection. The reporter construct was co-transfected with pGL 4.74 vector into DU 145 cells using Nucleofection (Lonza, Walkersville, Md.). Reporter luciferase activity was measured and normalized to control Renilla luciferase activity for each sample. The mean±SEM from triplicate experiments for each experimental group was plotted for comparisons. The different groups were compared using one way ANOVA with Bonferroni's multiple comparison test. For filipin staining, LNCaP and DU 145 cells were grown on glass coverslips, fixed in 3% paraformaldehyde, and stained with 50 μg/mL filipin (Sigma, St. Louis, Mo.). Images were acquired using QCapturePro software (Qlmaging, Surrey, Canada) at the designated magnifications and fixed aperture and exposure time for both cell lines. Biochemical quantification of intracellular cholesterol was performed as previously described. Robinet et al., J Lipid Res. 51(11):3364-9 (2010). The different groups were compared using one way ANOVA with Bonferroni correction. For analysis of cholesterol efflux, cells were labeled with 0.5 μCi/mL [^3H]-cholesterol in RPMI containing 1% FBS for 16 hours at 37° C. After labeling, cells were chased for 4 hours at 37° C. in RPMI with or without acceptors (10 μg/mL APOA1 or 100 μg/mL HDL). At the end of this chase period, the radioactivity in the medium and cells was determined by liquid scintillation counting, and the percent efflux was calculated as 100×(medium dpm)/(medium dpm+cell dpm). Percent efflux to acceptors was calculated as (percent efflux to acceptor)-(percent efflux to no acceptor). LNCaP treatment groups were compared to the mock treated sample using one way ANOVA with Dunnett's correction. Unpaired t test with Welch's correction was used to compare the T0901317-treated with the mock treated DU 145 cells.

[4] = test system: ABCA1 transcription; assay: ABCA1 mRNA expression by realtime RT-PCR in LNCaP cells; conditions: 10 μM T0901317 24 hours, 5 μM 5-aza-2′-deoxycytidine 7 days, or combination, vs mock treated
Protocol: as §2, with “Cells were treated with 10 μM T0901317 (Sigma, St.” left out, “comparisons. […] Expression of ABCA1 and GAPDH mRNA was measured by realtime RT-PCR as previously described (Yan et al.).” for “comparisons.”, “relative fold change in expression was calculated using the 2^−ΔΔCT method by normalizing to GAPDH mRNA expression in each sample and” for “different groups were”, “to LNCaP mock treated cells. […]” for “using one way ANOVA with Bonferroni's multiple comparison test.”

[5] = test system: DU 145 cells; assay: Cellular [3H]-cholesterol efflux to acceptors in DU 145 cells
Protocol: as §1

[6] = test system: DU 145 cells; assay: Total cellular cholesterol content in DU 145 cells; conditions: 10 μM T0901317
Protocol: as §1

[7] = test system: ABCA1 promoter; assay: Methylation-specific PCR (MSP) of the ABCA1 promoter in LNCaP cells; conditions: 5 μM for 7 days
Protocol: Bisulfite sequencing and methylation-specific PCR (MSP) of the ABCA1 promoter was performed as previously described (Yan et al., PLoS ONE. 2011; 6(6):e20628 (2011). See Table 1 for a list of the primers used.

Structure (SMILES) | intracellular cholesterol (change vs untreated) [1] | luciferase reporter activity from methylated ABCA1 promoter ([2]; SssI methylated promoter) | luciferase reporter expression from unmethylated ABCA1 promoter ([2]; unmethylated promoter) | cholesterol efflux to APOA1 [3] | cholesterol efflux to HDL [3] | ABCA1 transcription (mRNA expression) [4] | cholesterol efflux to APOA1 ([5]; acceptor 10 μg/mL APOA1, 10 μM T0901317) | cholesterol efflux to HDL ([5]; acceptor 100 μg/mL HDL, 10 μM T0901317) | intracellular cholesterol (change vs mock) [6] | demethylation of ABCA1 promoter [7]
O=S(=O)(c1ccccc1)N(CC(F)(F)F)c1ccc(C(O)(C(F)(F)F)C(F)(F)F)cc1 [T0901317] | did not decrease significantly | not induced | significant induction of reporter expression | did not result in robust increases in cholesterol efflux | same overall trend | only modestly induced above baseline | significant increase in cholesterol efflux to APOA1 | small, but statistically significant increase in cholesterol efflux to HDL | decreased intracellular cholesterol | 
Nc1ncn([C@H]2C[C@H](O)[C@@H](CO)O2)c(=O)n1 [5-aza-2′-deoxycytidine] | did not decrease significantly |  |  | did not result in robust increases in cholesterol efflux | same overall trend | did not strongly induce ABCA1 transcription |  |  |  | confirmed demethylation of ABCA1 promoter
